Where two headings read alike, the source gives them in different places.
Columns and labels:
GSK3α = GSK3α (Homo sapiens, UniProt P49840); assay: biochemical
Outline: (§1)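 Reactions run 20 hours at room temperature, stopped with EDTA. Phosphorylated and unphosphorylated fluoresceinated peptide separated electrophoretically on Caliper LabChip3000. Eleven compound concentrations tested; IC50 by non-linear regression.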

GSK3β = GSK3β (Homo sapiens, UniProt P49841); assay: GSK3β kinase assay (Caliper LabChip3000, fluoresceinated peptide substrate); assay type: biochemical
Sequence of GSK3β (P49841 whole entry, species assumed): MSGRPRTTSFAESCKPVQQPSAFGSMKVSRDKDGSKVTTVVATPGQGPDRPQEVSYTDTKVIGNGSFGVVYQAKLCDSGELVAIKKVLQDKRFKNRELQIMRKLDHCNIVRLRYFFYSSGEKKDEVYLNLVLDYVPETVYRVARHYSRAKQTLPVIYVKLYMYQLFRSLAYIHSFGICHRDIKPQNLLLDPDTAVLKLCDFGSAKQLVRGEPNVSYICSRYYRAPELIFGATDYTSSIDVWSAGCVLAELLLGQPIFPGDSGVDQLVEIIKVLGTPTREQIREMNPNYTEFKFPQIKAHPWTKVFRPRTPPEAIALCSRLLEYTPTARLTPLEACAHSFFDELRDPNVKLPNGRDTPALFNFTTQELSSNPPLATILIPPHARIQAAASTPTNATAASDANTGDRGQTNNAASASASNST
Outline: as §1

pTau = pTau assay (method not described); assay type: cell-based
[1] = second value of the cell, 250 pM enzyme, 20 uM ATP, 20 hours at room temperature, read-out: GSK3β/α (nM): GSK3α IC50
[2] = first value of the cell, 250 pM enzyme, 20 uM ATP, 20 hours at room temperature, read-out: GSK3β/α (nM): GSK3β IC50

Sequence of GSK3α (P49840 whole entry, species assumed): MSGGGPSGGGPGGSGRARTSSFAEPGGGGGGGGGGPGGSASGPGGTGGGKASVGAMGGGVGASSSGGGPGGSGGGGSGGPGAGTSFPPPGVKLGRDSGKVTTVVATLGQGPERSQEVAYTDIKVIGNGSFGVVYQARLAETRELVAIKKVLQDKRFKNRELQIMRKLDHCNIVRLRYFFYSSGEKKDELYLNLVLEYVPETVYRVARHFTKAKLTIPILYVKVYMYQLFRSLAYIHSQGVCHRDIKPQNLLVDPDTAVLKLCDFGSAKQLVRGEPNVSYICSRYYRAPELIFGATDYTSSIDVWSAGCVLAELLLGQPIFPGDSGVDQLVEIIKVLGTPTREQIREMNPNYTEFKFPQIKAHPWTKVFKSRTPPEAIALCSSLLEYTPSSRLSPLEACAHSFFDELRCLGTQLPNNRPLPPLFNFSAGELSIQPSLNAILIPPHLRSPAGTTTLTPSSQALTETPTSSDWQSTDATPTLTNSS

Work on CCOc1cccc(-c2cncc(NC(=O)c3ccnc(NC(=O)C4CC4)c3)c2)c1Cl [Example 158, N-(5-(2-chloro-3-ethoxyphenyl)pyridin-3-yl)-2-(cyclopropanecarboxamido)isonicotinamide] yielded an IC50 (GSK3α; [1]) of 2.5 nM, an IC50 (GSK3β; [2]) of 7.7 nM and an IC50 (pTau; read-out: pTau) of 425 nM.

For O=C(Nc1cncc(-c2cncc(Cl)c2)c1)c1ccnc(NC(=O)C2CC2)c1 [Example 160], the IC50 (GSK3α; [1]) was 1.6 nM, the IC50 (GSK3β) was 3.9 nM and the IC50 (pTau; read-out: pTau) was 150 nM.

Work on O=C(Nc1cncc(-c2cncc(F)c2)c1)c1ccnc(NC(=O)C2CC2)c1 [Example 161, 2-(cyclopropanecarboxamido)-N-(5′-fluoro-[3,3′-bipyridin]-5-yl)isonicotinamide] yielded an IC50 (GSK3α; [1]) of 0.6 nM, an IC50 (GSK3β; [2]) of 1.7 nM and an IC50 (pTau; read-out: pTau) of 175 nM.

Molecule Cc1ccc(-c2cncc(NC(=O)c3ccnc(NC(=O)C4CC4)c3)c2)cn1 [Example 162, 2-(cyclopropanecarboxamido)-N-(6′-methyl-[3,3′-bipyridin]-5-yl)isonicotinamide] has an IC50 (GSK3α; [1]) of 1.1 nM, an IC50 (GSK3β) of 2.5 nM and an IC50 (pTau; read-out: pTau) of 115 nM.

For O=C(Nc1cncc(-c2ccc(F)nc2)c1)c1ccnc(NC(=O)C2CC2)c1 [Example 163, 2-(cyclopropanecarboxamido)-N-(6′-fluoro-[3,3′-bipyridin]-5-yl)isonicotinamide], the IC50 (GSK3α; [1]) was 1.7 nM, the IC50 (GSK3β; [2]) was 6 nM and the IC50 (pTau; read-out: pTau) was 130 nM.

Work on COc1cccc(-c2cncc(NC(=O)c3ccnc(NC(=O)C4CC4)c3)c2)n1 [Example 164, 2-(cyclopropanecarboxamido)-N-(6-methoxy-[2,3′-bipyridin]-5′-yl)isonicotinamide] yielded an IC50 (GSK3α; [1]) of 1.4 nM, an IC50 (GSK3β; [2]) of 6 nM and an IC50 (pTau; read-out: pTau) of 270 nM.

In the case of O=C(Nc1cncc(-c2cccc(F)n2)c1)c1ccnc(NC(=O)C2CC2)c1 [Example 165, 2-(cyclopropanecarboxamido)-N-(6-fluoro-[2,3′-bipyridin]-5′-yl)isonicotinamide], the IC50 (GSK3α; [1]) is reported as 1.3 nM, the IC50 (GSK3β; [2]) is reported as 3.8 nM and the IC50 (pTau; read-out: pTau) is reported as 125 nM.

O=C(Nc1cncc(-c2ccnc(F)c2F)c1)c1ccnc(NC(=O)C2CC2)c1 [Example 166, 2-(cyclopropanecarboxamido)-N-(2′,3′-difluoro-[3,4′-bipyridin]-5-yl)isonicotinamide] was tested, and the IC50 (GSK3α; [1]) was 11 nM, the IC50 (GSK3β; [2]) was 44 nM and the IC50 (pTau; read-out: pTau) was 360 nM.

In the case of O=C(Nc1cnccc1-c1cc(Br)cc(Br)c1)c1ccnc(NC(=O)C2CC2)c1 [Example 167, 2-(cyclopropanecarboxamido)-N-(4-(3,5-dibromophenyl)pyridin-3-yl)isonicotinamide], the IC50 (GSK3α; [1]) is reported as 9.3 nM, the IC50 (GSK3β; [2]) is reported as 20 nM and the IC50 (pTau; read-out: pTau) is reported as 5500 nM.

O=C(Nc1cnccc1-c1ccc(Br)cc1)c1ccnc(NC(=O)C2CC2)c1 [Example 168, N-(4-(4-bromophenyl)pyridin-3-yl)-2-(cyclopropanecarboxamido)isonicotinamide] gave an IC50 (GSK3α; [1]) of 2.2 nM, an IC50 (GSK3β; [2]) of 6.8 nM and an IC50 (pTau; read-out: pTau) of 240 nM.

O=C(Nc1cnccc1-c1ccc(I)cc1)c1ccnc(NC(=O)C2CC2)c1 [Example 169, 2-(cyclopropanecarboxamido)-N-(4-(4-iodophenyl)pyridin-3-yl)isonicotinamide] was tested, and the IC50 (GSK3α; [1]) was 1.5 nM, the IC50 (GSK3β; [2]) was 2.8 nM and the IC50 (pTau; read-out: pTau) was 170 nM.

In the case of O=C(Nc1cnccn1)c1ccnc(NC(=O)C2CC2)c1 [Example 170, 2-(Cyclopropanecarboxamido)-N-(pyrazin-2-yl)isonicotinamide], the IC50 (GSK3α; [1]) is reported as 2.9 nM, the IC50 (GSK3β; [2]) is reported as 8.1 nM and the IC50 (pTau; read-out: pTau) is reported as 570 nM.

Work on CC(C)n1cc(NC(=O)c2ccnc(NC(=O)C3CC3)c2)cn1 [Example 171, 2-(cyclopropanecarboxamido)-N-(1-isopropyl-1H-pyrazol-4-yl)isonicotinamide] yielded an IC50 (GSK3α; [1]) of 170 nM, an IC50 (GSK3β; [2]) of 370 nM and an IC50 (pTau; read-out: pTau) of 4000 nM.

O=C(Nc1cnn(CC(F)(F)F)c1)c1ccnc(NC(=O)C2CC2)c1 [Example 172, 2-(cyclopropanecarboxamido)-N-(1-(2,2,2-trifluoroethyl)-1H-pyrazol-4-yl)isonicotinamide] was tested, and the IC50 (GSK3α; [1]) was 14 nM, the IC50 (GSK3β; [2]) was 35 nM and the IC50 (pTau; read-out: pTau) was 700 nM.

For O=C(Nc1cncs1)c1ccnc(NC(=O)C2CC2)c1 [Example 173, 2-(cyclopropanecarboxamido)-N-(thiazol-5-yl)isonicotinamide], the IC50 (GSK3α; [1]) was 14 nM, the IC50 (GSK3β; [2]) was 18 nM and the IC50 (pTau; read-out: pTau) was 2500 nM.

Cc1c(NC(=O)c2ccnc(NC(=O)C3CC3)c2)cnn1C [Example 175, 2-(cyclopropanecarboxamido)-N-(1,5-dimethyl-1H-pyrazol-4-yl)isonicotinamide] showed an IC50 (GSK3α; [1]) of 33 nM, an IC50 (GSK3β; [2]) of 68 nM and an IC50 (pTau; read-out: pTau) of 3700 nM.

O=C(Nc1cncnc1)c1ccnc(NC(=O)C2CC2)c1 [Example 178, 2-(Cyclopropanecarboxamido)-N-(pyrimidin-5-yl)isonicotinamide] was tested, and the IC50 (GSK3α; [1]) was 12 nM, the IC50 (GSK3β; [2]) was 14 nM and the IC50 (pTau; read-out: pTau) was 1200 nM.

O=C(Nc1cncnc1N1CCC(F)(F)CC1)c1ccnc(NC(=O)C2CC2)c1 [Example 179, 2-(Cyclopropanecarboxamido)-N-(4-(4,4-difluoropiperidin-1-yl)pyrimidin-5-yl)isonicotinamide] gave an IC50 (GSK3α; [1]) of 40 nM, an IC50 (GSK3β; [2]) of 160 nM and an IC50 (pTau; read-out: pTau) of 3000 nM.

With O=C(Nc1cncc(-c2ccccc2F)n1)c1ccnc(NC(=O)C2CC2)c1 [Example 180, 2-(Cyclopropanecarboxamido)-N-(6-(2-fluorophenyl)pyrazin-2-yl)isonicotinamide] the IC50 (GSK3α; [1]) was 1.2 nM, the IC50 (GSK3β; [2]) was 6.2 nM and the IC50 (pTau; read-out: pTau) was 190 nM.

In the case of O=C(Nc1nc2cnccc2s1)c1ccnc(NC(=O)C2CC2)c1 [Example 182, 2-(cyclopropanecarboxamido)-N-(thiazolo[4,5-c]pyridin-2-yl)isonicotinamide], the IC50 (GSK3α; [1]) is reported as 470 nM, the IC50 (GSK3β; [2]) is reported as 1300 nM and the IC50 (pTau; read-out: pTau) is reported as ≥ 10000 nM.

NC(=O)c1cnc(NC(=O)c2ccnc(NC(=O)C3CC3)c2)s1 [Example 183, 2-(2-(cyclopropanecarboxamido)isonicotinamido)thiazole-5-carboxamide] was tested, and the IC50 (GSK3α; [1]) was 200 nM, the IC50 (GSK3β; [2]) was 530 nM and the IC50 (pTau; read-out: pTau) was ≥ 10000 nM.

With Cc1cccc2sc(NC(=O)c3ccnc(NC(=O)C4CC4)c3)nc12 [Example 184, 2-(cyclopropanecarboxamido)-N-(4-methylbenzo[d]thiazol-2-yl)isonicotinamide] the IC50 (GSK3α; [1]) was 170 nM, the IC50 (GSK3β; [2]) was 800 nM and the IC50 (pTau; read-out: pTau) was ≥ 10000 nM.

Work on CC(C)C(=O)Nc1cc(C(=O)Nc2cnccc2-c2ccccc2)ccn1 [Example 185, 2-Isobutyramido-N-(4-phenylpyridin-3-yl)isonicotinamide] yielded an IC50 (GSK3α; [1]) of 4.2 nM, an IC50 (GSK3β) of 1.4 nM and an IC50 (pTau; read-out: pTau) of 180 nM.

Molecule CC(C)C(=O)Nc1cc(C(=O)Nc2cnccc2-c2ccc(Cl)cc2)ccn1 [Example 186, N-(4-(4-chlorophenyl)pyridin-3-yl)-2-isobutyramidoisonicotinamide] has an IC50 (GSK3α; [1]) of 6.5 nM, an IC50 (GSK3β) of 20 nM and an IC50 (pTau; read-out: pTau) of 360 nM.

CC(C)C(=O)Nc1cc(C(=O)Nc2cnc(F)cc2OCC(F)F)ccn1 [Example 187, N-(4-(2,2-difluoroethoxy)-6-fluoropyridin-3-yl)-2-isobutyramidoisonicotinamide] gave an IC50 (GSK3α; [1]) of 1.2 nM, an IC50 (GSK3β; [2]) of 2.7 nM and an IC50 (pTau; read-out: pTau) of 210 nM.

CC(C)C(=O)Nc1cc(C(=O)Nc2cnccc2OCCN2CCCC2)ccn1 [Example 188, 2-Isobutyramido-N-(4-(2-(pyrrolidin-1-yl)ethoxy)pyridin-3-yl)isonicotinamide] gave an IC50 (GSK3α; [1]) of 19 nM, an IC50 (GSK3β; [2]) of 39 nM and an IC50 (pTau; read-out: pTau) of 2200 nM.

CC(C)C(=O)Nc1cc(C(=O)Nc2cnccc2OCCN2CCOCC2)ccn1 [Example 189, 2-Isobutyramido-N-(4-(2-morpholinoethoxy)pyridin-3-yl)isonicotinamide] gave an IC50 (GSK3α; [1]) of 1.1 nM, an IC50 (GSK3β) of 2.3 nM and an IC50 (pTau; read-out: pTau) of 99 nM.

For CC(C)C(=O)Nc1cc(C(=O)Nc2cnccc2OCCC(C)(C)O)ccn1 [Example 190, N-(4-(3-hydroxy-3-methylbutoxy)pyridin-3-yl)-2-isobutyramidoisonicotinamide], the IC50 (GSK3α) was 1.4 nM, the IC50 (GSK3β) was 3.3 nM and the IC50 (pTau; read-out: pTau (nM)) was 19 nM.

CCC1(c2cc(Cl)ncc2NC(=O)c2ccnc(NC(=O)C(C)C)c2)OCCO1 [Example 191, N-(6-chloro-4-(2-ethyl-1,3-dioxolan-2-yl)pyridin-3-yl)-2-isobutyramidoisonicotinamide] showed an IC50 (GSK3α; [1]) of 0.12 nM, an IC50 (GSK3β; [2]) of 0.08 nM and an IC50 (pTau; read-out: pTau) of 12 nM.

CC(C)C(=O)Nc1cc(C(=O)Nc2cncc(-c3cc(F)ccc3F)c2)ccn1 [Example 192, N-(5-(2,5-difluorophenyl)pyridin-3-yl)-2-isobutyramidoisonicotinamide] gave an IC50 (GSK3α; [1]) of 1.4 nM, an IC50 (GSK3β) of 4.6 nM and an IC50 (pTau; read-out: pTau) of 94 nM.

With CC(C)C(=O)Nc1cc(C(=O)Nc2cncc(-c3ccccc3F)c2)ccn1 [Example 193, N-(5-(2-fluorophenyl)pyridin-3-yl)-2-isobutyramidoisonicotinamide] the IC50 (GSK3α; [1]) was 2.2 nM, the IC50 (GSK3β) was 5.6 nM and the IC50 (pTau; read-out: pTau) was 85 nM.

In the case of CC(C)C(=O)Nc1cc(C(=O)Nc2cncc(-c3cccc(F)c3F)c2)ccn1 [Example 194, N-(5-(2,3-difluorophenyl)pyridin-3-yl)-2-isobutyramidoisonicotinamide], the IC50 (GSK3α; [1]) is reported as 1.4 nM, the IC50 (GSK3β; [2]) is reported as 3.8 nM and the IC50 (pTau; read-out: pTau) is reported as 140 nM.

CC(C)C(=O)Nc1cc(C(=O)Nc2cncc(-c3ccccc3Cl)c2)ccn1 [Example 195, N-(5-(2-chlorophenyl)pyridin-3-yl)-2-isobutyramidoisonicotinamide] showed an IC50 (GSK3α; [1]) of 1.5 nM, an IC50 (GSK3β; [2]) of 10 nM and an IC50 (pTau; read-out: pTau) of 107 nM.

CC(C)C(=O)Nc1cc(C(=O)Nc2cnccc2C(=O)c2ccccc2)ccn1 [Example 196, N-(4-benzoylpyridin-3-yl)-2-isobutyramidoisonicotinamide] gave an IC50 (GSK3α; [1]) of 5.9 nM, an IC50 (GSK3β; [2]) of 13 nM and an IC50 (pTau; read-out: pTau) of 520 nM.

CC(C)C(=O)Nc1cc(C(=O)Nc2cncc(C(O)c3ccccc3)c2)ccn1 (stereo not drawn) [Example 197, N-(5-(hydroxy(phenyl)methyl)pyridin-3-yl)-2-isobutyramidoisonicotinamide] was tested, and the IC50 (GSK3α; [1]) was 12 nM, the IC50 (GSK3β; [2]) was 19 nM and the IC50 (pTau; read-out: pTau) was 320 nM.

— US9809573B2, “Substituted pyridine derivatives useful as GSK-3 inhibitors” (priority 2013, dated 2017)
